ChEMBL document CHEMBL1141832, “A new discorhabdin from two sponge genera” (1999)
In brackets after ≈: the same amount, converted by molar mass.

Assay: Antitumor activity against human NCI60 cells
Type: functional

SMILES: O=C1C=C2S[C@H]3C[C@]2(C=C1Br)C1=C(N3)C(=O)c2[nH]cc3ccnc1c23 [DISCORHABDIN Q]
- GI50: 0.5 µg/mL (≈ 1.21 µM)
